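Values below derive from 48-hour exposures of cells grown in 96-well plates, with endpoints linearly interpolated between the two concentrations bracketing the appropriate inhibition level. GI50: concentration for 50% inhibition of growth. TGI: total growth inhibition.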
Legend:
Experiment in all cases: growth of human tumour cells (NCI), 48 h
[1] = tested on: 786-0 renal
[2] = tested on: A498 renal
[3] = tested on: A549 NSCLC
[4] = tested on: ACHN renal
[5] = tested on: BT-549 breast
[6] = tested on: CAKI-1 renal
[7] = tested on: CCRF-CEM leukemia
[8] = tested on: COLO 205 colon
[9] = tested on: DU-145 prostate
[10] = tested on: EKVX NSCLC
[11] = tested on: HCC-2998 colon
[12] = tested on: HCT-116 colon
[13] = tested on: HCT-15 colon
[14] = tested on: HL-60(TB) leukemia
[15] = tested on: HOP-62 NSCLC
[16] = tested on: HOP-92 NSCLC
[17] = tested on: HS 578T breast
[18] = tested on: HT29 colon
[19] = tested on: IGROV1 ovarian
[20] = tested on: K-562 leukemia
[21] = tested on: KM12 colon
[22] = tested on: LOX IMVI melanoma
[23] = tested on: M14 melanoma
[24] = tested on: MALME-3M melanoma
[25] = tested on: MCF7 breast
[26] = tested on: MDA-MB-231 breast
[27] = tested on: MDA-MB-435
[28] = tested on: MDA-MB-468 breast
[29] = tested on: MOLT-4 leukemia

Molecule `CC1=C2C(=C[C@@](C)(COCOCCCl)[C@@H]2O)C(=O)[C@](C)(O)C12CC2` has a GI50 [1] of 0.638 µM, a TGI [1] of 1.98 µM and a GI50 [2] of 1.61 µM. It also gave a TGI [2] of 4.99 µM, a GI50 [3] of 0.322 µM and a TGI [3] of 6.86 µM. It also gave a GI50 [4] of 0.0554 µM, a TGI [4] of 0.387 µM and a GI50 [5] of 0.243 µM. For the same molecule, the TGI [5] was 0.786 µM, the GI50 [6] was 0.263 µM and the TGI [6] was 2.1 µM. The GI50 [7] was 0.626 µM, the TGI [7] was > 33.8 µM and the GI50 [8] was 0.258 µM. It also gave a TGI [8] of 0.924 µM, a GI50 [9] of 0.142 µM and a TGI [9] of 1.51 µM. It also gave a GI50 [10] of 0.285 µM, a TGI [10] of 0.87 µM and a GI50 [11] of 0.199 µM. The TGI [11] was 0.495 µM, the GI50 [12] was 0.128 µM and the TGI [12] was > 41.5 µM. It also gave a GI50 [13] of 0.0644 µM, a TGI [13] of 2.55 µM and a GI50 [14] of 0.126 µM. For the same molecule, the TGI [14] was 2.13 µM, the GI50 [15] was 0.344 µM and the TGI [15] was 1.88 µM. The GI50 [16] was 0.248 µM, the TGI [16] was 0.685 µM and the GI50 [17] was 0.598 µM. It also gave a TGI [17] of 4 µM, a GI50 [18] of 0.174 µM and a GI50 [19] of 0.229 µM. The TGI [19] was 0.961 µM, the GI50 [20] was 0.445 µM and the TGI [20] was > 100 µM. It also gave a GI50 [21] of 0.35 µM, a TGI [21] of 4.83 µM and a GI50 [22] of 0.137 µM. The TGI [22] was 0.493 µM, the GI50 [23] was 0.285 µM and the TGI [23] was 0.99 µM. For the same molecule, the GI50 [24] was 0.229 µM, the TGI [24] was 0.509 µM and the GI50 [25] was 0.045 µM. It also gave a TGI [25] of 3.18 µM, a GI50 [26] of 0.294 µM and a TGI [26] of 1.03 µM. The GI50 [27] was 0.322 µM, the TGI [27] was 1.09 µM and the GI50 [28] was 0.123 µM. It also gave a TGI [28] of 0.299 µM and a GI50 [29] of 0.141 µM.
